Assay results as given in PubChem BioAssay (NCI).
“And” between values parts separate entries of the source, which are not always exact repeats. Identical values can stand only once.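 Following 48 hours of exposure in 96-well plates, responses at five concentrations were used to interpolate endpoints linearly. Here, GI50 denotes the concentration required for 50% inhibition of growth. TGI denotes the concentration required for complete inhibition of growth.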

Legend:
Assay in all cases: NCI tumour cell line growth inhibition, 48 h
DMS 114 small cell lung = system: DMS 114 small cell lung
RXF-631 renal = system: RXF-631 renal
DMS 273 small cell lung = system: DMS 273 small cell lung
DU-145 prostate = system: DU-145 prostate
HS 578T breast = system: HS 578T breast
MDA-MB-231 breast = system: MDA-MB-231 breast
MDA-N = system: MDA-N
MCF7 breast = system: MCF7 breast
MDA-MB-435 = system: MDA-MB-435
P388 leukemia = system: P388 leukemia

| SMILES | TGI (DMS 114 small cell lung) | TGI (RXF-631 renal) | TGI (DMS 273 small cell lung) | further results |
| --- | --- | --- | --- | --- |
| CC1=CC=NN2C(=O)[C@H](C)C2C1 (some centres not stated) | > 100 µM | > 100 µM | > 100 µM |  |
| Cc1ccc(S(=O)(=O)N/N=C(\CCN2CCCC2)CC(c2ccccc2)c2c(O)c3ccccc3oc2=O)cc1 (configuration not stated) |  | > 100 µM |  |  |
| Cc1[nH]c(=O)[nH]c(=O)c1N(CCF)CCCl | 371 µM and 771 µM and 436 µM |  | 330 µM and 470 µM and 560 µM | TGI (DU-145 prostate): 1410 µM; TGI (HS 578T breast): 1660 µM; TGI (MDA-MB-231 breast): 888 µM; TGI (MDA-N): 828 µM; GI50 (DMS 114 small cell lung): 148 µM; GI50 (MCF7 breast): 140 µM; TGI (MCF7 breast): 502 µM and > 250 µM and 851 µM; TGI (MDA-MB-435): 876 µM; GI50 (P388 leukemia): 190 µM and 58.3 µM and 223 µM; TGI (P388 leukemia): 485 µM and 1330 µM and 791 µM; GI50 (DMS 273 small cell lung): 113 µM and 122 µM and 189 µM |
| C/C(=N\N=C(N)N)C(CN(CC(C)C)CC(C)C)C(=O)Nc1ccc(C)cc1C (configuration not stated) | > 100 µM | > 100 µM | > 100 µM |  |
| CN(C)CCCCN1CCc2c(n(C)c3ccccc23)C1=O | > 100 µM |  | > 100 µM | TGI (DU-145 prostate): > 100 µM; TGI (HS 578T breast): > 89.4 µM; TGI (MDA-MB-231 breast): > 63.2 µM and 61.9 µM; TGI (MDA-N): 18.3 µM and 34.2 µM; TGI (MCF7 breast): > 59.9 µM and 64.7 µM; TGI (MDA-MB-435): 33.9 µM and 35 µM |
| COc1cccc(N2C(=O)c3c(c4[nH]c5ccccc5c4c4ccc(C(C)(C)C)cc34)C2=O)c1 | > 100 µM | > 100 µM | > 100 µM |  |
| CCC/C(=N\NC(=S)N1CCN(c2ccccn2)CC1)c1ccccn1 | 0.111 µM | > 10 µM and 2.34 µM | 1.37 µM and 1.42 µM | TGI (DU-145 prostate): 2.37 µM; TGI (HS 578T breast): 3.76 µM; TGI (MDA-MB-231 breast): 1.91 µM; TGI (MDA-N): 1.92 µM; GI50 (RXF-631 renal): 38.4 nM; TGI (MCF7 breast): 1.41 µM; TGI (MDA-MB-435): 1.96 µM |
| C/C(CN1C(=O)c2ccccc2C1=O)=N\NS(=O)(=O)c1cccc([N+](=O)[O-])c1 |  | > 100 µM | > 100 µM |  |
| CC(C)C(C(=O)O)N(CC1(O)OCC(O)C(O)C1O)N=O (configuration not stated) | > 100 µM | > 100 µM | > 100 µM |  |
| O=P(c1ccccc1)(c1ccccc1)C1CC=C(c2ccccc2)C2(CCCC2)C1 (configuration not stated) | > 100 µM | > 100 µM | > 100 µM |  |
| COc1ccc(OCC(=O)O)c2c1CCC(C(C)C)C2=O (configuration not stated) | > 100 µM | > 100 µM | > 100 µM |  |
| CC(=O)Nc1ccc(/C=C(\NC(=O)c2ccccc2)c2nc3ccc4c(c3[nH]2)C(=O)c2ccccc2C4=O)cc1 | > 100 µM |  | > 100 µM |  |
| CCN1C(=O)C/C(=C\C(C)=O)Nc2ccccc21 | > 100 µM |  | > 100 µM | GI50 (DU-145 prostate): > 100 µM; TGI (DU-145 prostate): > 100 µM; GI50 (HS 578T breast): > 100 µM; TGI (HS 578T breast): > 100 µM; GI50 (MDA-MB-231 breast): > 100 µM; TGI (MDA-MB-231 breast): > 100 µM; GI50 (MCF7 breast): > 100 µM; TGI (MCF7 breast): > 100 µM; GI50 (MDA-MB-435): > 100 µM; TGI (MDA-MB-435): > 100 µM |
| COc1ccc2[nH]cc(CCNC(C)=O)c2c1 | > 100 µM |  | > 100 µM |  |
| COC(=O)C1(C)C=C(Nc2ccccc2)C(=O)N1c1ccccc1 (configuration not stated) | > 100 µM | > 100 µM |  |  |
| CC(=O)N(C)OC(=O)CC(=O)c1ccccc1 | > 100 µM | > 100 µM | > 100 µM |  |
| O=S(=O)([O-])[O-].[OH3+].[OH3+].[OH3+].[Ru+2].c1ccccc1 | > 100 µM |  | > 100 µM | GI50 (DMS 114 small cell lung): > 100 µM; GI50 (DMS 273 small cell lung): > 100 µM |
| Cn1ncc(=S)[nH]c1=S | > 100 µM | > 100 µM | > 100 µM |  |
| CCN(CC)CCCN(c1cc(OC)cc2nccnc12)S(=O)(=O)c1ccc(C)cc1 | > 100 µM | > 100 µM | > 100 µM |  |
| O=C1NC(=O)C(C(=O)C(=O)Nc2ccc(Br)cc2)C(=O)N1 | > 100 µM | > 100 µM | > 100 µM |  |
| CC(C)(C)NNC(=O)/C(=C/c1ccc(Oc2ccc(Cl)c(Cl)c2)cc1)NC(=O)c1ccccc1 | 35.9 µM | > 100 µM | 58.3 µM |  |
| Oc1cccc2c1NC1=C(CCC/C1=C\c1ccccc1)C2 | > 100 µM |  | > 100 µM |  |
| CCCCCCCCCCCCCS(=O)(=O)O | > 100 µM | > 100 µM |  |  |
| Cc1ccc(NC(=O)c2[nH]c(=S)nc(N)c2-c2ccccc2C)cc1C | > 100 µM |  | > 100 µM |  |
| O=C(Nc1ccc(Cl)c(C(F)(F)F)c1)C(=O)C(C(=O)/C=C/c1ccccc1)C1OC(=O)c2ccccc21 (configuration not stated) | > 100 µM |  | > 100 µM |  |
